Data reported in patent US7893286B2, “Method for the synthesis of phospholipid ethers” (Cellectar, Inc., priority 2007, dated 2011).

System: A549 human non-small cell lung cancer xenografts
Experiment: Antitumor effect of single-dose ^125I-NM404 on tumor volume in SCID mice bearing A549 xenografts
Format: in vivo
Conditions: for effect on tumor volume compared to control animals: up to 10 weeks post-injection
Excerpt: FIG. 2, illustrates antitumor effect of single-dose treatment with ^125I-125-NM404 at doses of 50 (⊚), 150 (□), 250 (⋄) and 500 (∘) μCi in SCID mice bearing A549 human non-small cell lung cancer xenografts. In this figure, control animals show rapidly growing tumors over the 10-week assessment period.
FIG. 2 summarizes investigations into the efficacy of ^125I-NM404 treatment. These investigations provided assessments of tumor volume were made until 10 weeks post-injection or until no animal in the control group is alive, whatever came first. Summarizing the results, control animals show rapidly growing tumors over the 10-week assessment period. […] Tumor volumes are stable and same tumors appear “collapsed” (the tumor surface has caved in). Additionally, FIG. 3 illustrates that hair above the tumors fell off confirming substantial accumulation of radioactivity in these tumors.

C[N+](C)(C)CCOP(=O)([O-])OCCCCCCCCCCCCCCCCCCc1ccc([125I])cc1 [^125I-NM404]
effect on the tumor (appearance) (250 μCi, 4 weeks following injection): causes central necrosis | dose dependence of effect on tumor volume (doses 50-500 μCi): dose-linear effect | tumor therapy efficacy (following single injection and fractionated dosing): effective tumor therapy treatment | effect on tumor volume compared to control animals (single dose 50 μCi): did not show any difference | effect on tumor volume compared to control animals (single dose 250 μCi): substantial and prolonged treatment effect | effect on tumor volume compared to control animals (single dose 500 μCi): substantial and prolonged treatment effect
